Measurements published in patent publication US20240217990A1 (Gilead Sciences, Inc., priority 2021, published 2024).

How the values were obtained:
TLR7 = target: T1, TLR7 (Homo sapiens, UniProt Q9NYK1); experiment: TLR7 human PBMC cell-based assay (antagonist, GS-986 stimulated cytokine release); settings: human PBMCs; TLR7 agonist GS-986 400 nM, 6 hours; cytokines (IL-6 and IFNα) in supernatant; read-out: TLR-7 EC50
T1 construct: Human peripheral blood mononuclear cells (PBMCs) consist of lymphocytes, monocytes and dendritic cells that express TLR7, TLR8 and TLR9; endogenous in cells; host or cells: cryopreserved human PBMCs from healthy donors
T1 sequence (Q9NYK1 27-1049): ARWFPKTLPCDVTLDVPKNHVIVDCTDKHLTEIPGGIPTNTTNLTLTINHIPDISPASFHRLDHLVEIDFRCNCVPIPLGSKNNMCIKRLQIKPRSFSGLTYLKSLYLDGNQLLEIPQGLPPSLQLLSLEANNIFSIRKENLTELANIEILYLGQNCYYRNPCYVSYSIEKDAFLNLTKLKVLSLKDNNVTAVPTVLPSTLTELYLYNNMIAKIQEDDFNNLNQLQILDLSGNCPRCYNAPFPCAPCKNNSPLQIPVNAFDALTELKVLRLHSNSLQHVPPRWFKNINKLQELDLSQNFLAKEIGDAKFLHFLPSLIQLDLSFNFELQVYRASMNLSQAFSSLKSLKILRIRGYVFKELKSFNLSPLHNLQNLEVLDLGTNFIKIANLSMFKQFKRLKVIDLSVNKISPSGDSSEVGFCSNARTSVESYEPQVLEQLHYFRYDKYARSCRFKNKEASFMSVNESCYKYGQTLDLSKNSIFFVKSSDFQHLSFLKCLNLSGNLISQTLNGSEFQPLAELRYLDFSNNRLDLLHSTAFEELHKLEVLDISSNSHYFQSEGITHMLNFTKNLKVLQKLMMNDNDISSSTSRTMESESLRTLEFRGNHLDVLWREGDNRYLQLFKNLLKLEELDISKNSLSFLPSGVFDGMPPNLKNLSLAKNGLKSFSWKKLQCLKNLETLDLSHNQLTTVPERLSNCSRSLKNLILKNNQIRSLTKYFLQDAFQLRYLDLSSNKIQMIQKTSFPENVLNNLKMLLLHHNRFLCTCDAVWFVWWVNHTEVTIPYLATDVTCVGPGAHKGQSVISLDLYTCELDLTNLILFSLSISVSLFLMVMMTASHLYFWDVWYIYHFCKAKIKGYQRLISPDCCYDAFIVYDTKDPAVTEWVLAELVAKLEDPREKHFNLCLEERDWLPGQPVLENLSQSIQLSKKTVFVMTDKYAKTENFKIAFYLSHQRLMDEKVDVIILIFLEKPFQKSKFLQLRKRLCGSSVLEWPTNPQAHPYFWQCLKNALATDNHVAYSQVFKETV
Summary of the method: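 Cryopreserved healthy-donor PBMCs (100,000/well, RPMI-1640 + 10% FBS) pre-incubated 1 h at 37 °C with antagonist (10-point dose response, quadruplicate), then stimulated 6 h with GS-986 at 400 nM final. Supernatant IL-6 and IFNα measured by electrochemiluminescence immunoassay; EC50 from sigmoidal fit.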

TLR8 = target: T2, TLR8 (Homo sapiens, UniProt Q9NR97); experiment: TLR8 human PBMC cell-based assay (antagonist, Compound A stimulated cytokine release); settings: human PBMCs; TLR8 agonist Compound A 800 nM, 6 hours; cytokines (TNFa and IL 12p40) in supernatant; read-out: TLR-8 EC50
T2 construct: Human peripheral blood mononuclear cells (PBMCs) consist of lymphocytes, monocytes and dendritic cells that express TLR7, TLR8 and TLR9; endogenous in cells; host or cells: cryopreserved human PBMCs from healthy donors
T2 sequence (Q9NR97 27-1041): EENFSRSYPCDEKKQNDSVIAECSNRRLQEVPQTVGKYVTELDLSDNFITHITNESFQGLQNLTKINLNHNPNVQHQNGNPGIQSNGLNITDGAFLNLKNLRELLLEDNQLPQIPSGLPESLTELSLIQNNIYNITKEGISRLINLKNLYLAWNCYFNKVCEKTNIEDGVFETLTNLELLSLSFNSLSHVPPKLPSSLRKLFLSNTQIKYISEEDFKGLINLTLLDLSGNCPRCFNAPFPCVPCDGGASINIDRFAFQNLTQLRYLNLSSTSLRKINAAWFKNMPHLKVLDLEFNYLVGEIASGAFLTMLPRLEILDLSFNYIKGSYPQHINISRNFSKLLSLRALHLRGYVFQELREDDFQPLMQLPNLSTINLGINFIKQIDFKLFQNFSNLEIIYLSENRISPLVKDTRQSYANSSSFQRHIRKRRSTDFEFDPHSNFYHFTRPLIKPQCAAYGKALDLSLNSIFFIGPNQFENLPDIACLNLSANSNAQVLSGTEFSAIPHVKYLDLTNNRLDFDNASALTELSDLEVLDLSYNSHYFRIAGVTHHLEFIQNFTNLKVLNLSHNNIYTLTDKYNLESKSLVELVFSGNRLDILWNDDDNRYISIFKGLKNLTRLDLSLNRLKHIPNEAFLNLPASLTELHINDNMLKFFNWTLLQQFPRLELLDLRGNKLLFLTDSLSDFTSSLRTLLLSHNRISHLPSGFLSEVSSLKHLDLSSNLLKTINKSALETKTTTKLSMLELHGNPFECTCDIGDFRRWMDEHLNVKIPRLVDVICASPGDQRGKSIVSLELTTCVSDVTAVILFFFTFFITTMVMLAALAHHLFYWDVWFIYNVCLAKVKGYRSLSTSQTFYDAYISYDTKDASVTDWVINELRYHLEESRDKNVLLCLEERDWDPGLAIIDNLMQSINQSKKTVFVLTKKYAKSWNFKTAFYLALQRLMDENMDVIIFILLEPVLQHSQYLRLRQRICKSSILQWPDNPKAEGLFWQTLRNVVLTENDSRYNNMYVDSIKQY
Summary of the method: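 Cryopreserved donor PBMCs (100,000/well, RPMI + 10% FBS) were preincubated 1 h with antagonist (10-point dose response, quadruplicate), then stimulated with Compound A (800 nM final) for 6 h at 37 °C. TNFa and IL-12p40 in supernatants were measured by electrochemiluminescence; sigmoidal fits gave EC50.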

| EC50 (TLR7) | EC50 (TLR8) | SMILES |
| --- | --- | --- |
| 2.1 nM | 3.1 nM | Cc1cc(-c2[nH]c3cc(C4CCN(CC5(C)COC5)CC4)sc3c2C(C)C)cn2ncnc12 [Example 186, 6-isopropyl-5-(8-methyl-[1,2,4]triazolo[1,5-a]pyridin-6-yl)-2-(1-((3-methyloxetan-3-yl)methyl)piperidin-4-yl)-4H-thieno[3,2-b]pyrrole] |
| 1.6 nM | 0.6 nM | Cc1cc(-c2[nH]c3cc(C4CCN(CCO)CC4)sc3c2C(C)C)cn2ncnc12 [Example 187, 2-(4-(6-isopropyl-5-(8-methyl-[1,2,4]triazolo[1,5-a]pyridin-6-yl)-4H-thieno[3,2-b]pyrrol-2-yl)piperidin-1-yl)ethan-1-ol] |
| 1.3 nM | 0.3 nM | Cc1cc(-c2[nH]c3cc(-c4ccc5c(c4)CN(CCO)CC5)sc3c2C(C)C)cn2ncnc12 [Example 188] |
| 1.3 nM | 0.7 nM | Cc1cc(-c2[nH]c3cc(-c4cnn(C5CCN(CCO)CC5)c4)sc3c2C(C)C)cn2ncnc12 [Example 189] |
| 2.4 nM | 0.5 nM | Cc1cc(-c2[nH]c3cc(-c4cnc5c(c4)CN(CCO)CC5)sc3c2C(C)C)cn2ncnc12 [Example 190] |
| 0.2 nM | 1 nM | Cc1cc(-c2[nH]c3cc(C4CCC5(CC4)CN(CCO)C5)sc3c2C(C)C)cn2ncnc12 [Example 191] |
| 1.2 nM | 0.5 nM | Cc1c(-c2[nH]c3cc(C(=O)N(C)C4CCN(CCO)CC4)sc3c2C(C)C)cn2ncnc2c1C [Example 192] |
| 18.2 nM | 12.3 nM | Cc1cc(CN2CCC(c3cc4[nH]c(-c5cc(C)c6ncnn6c5)c(C(C)C)c4s3)CC2)no1 [Example 193] |
| 4.5 nM | 0.6 nM | Cc1cc(-c2[nH]c3cc(C4CCN(Cc5ccn(C)n5)CC4)sc3c2C(C)C)cn2ncnc12 [Example 194] |
| 2.5 nM | 0.3 nM | Cc1cc(-c2[nH]c3cc(C4CCN(C5CCC5)CC4)sc3c2C(C)C)cn2ncnc12 [Example 195] |
| 1.3 nM | 4.2 nM | Cc1cc(-c2[nH]c3cc(C4CCN(C(=O)CN5CCCC5)CC4)sc3c2C(C)C)cn2ncnc12 [Example 196, 1-(4-(6-isopropyl-5-(8-methyl-[1,2,4]triazolo[1,5-a]pyridin-6-yl)-4H-thieno[3,2-b]pyrrol-2-yl)piperidin-1-yl)-2-(pyrrolidin-1-yl)ethan-1-one] |
| 33.1 nM | 79.7 nM | Cc1cc(-c2[nH]c3cc(C4CCN(C(=O)C5(N)CCC5)CC4)sc3c2C(C)C)cn2ncnc12 [Example 197] |
| 3.9 nM | 5.3 nM | Cc1cc(-c2[nH]c3cc(C4CCN(C(=O)[C@H]5CCCN5C)CC4)sc3c2C(C)C)cn2ncnc12 [Example 199] |
| 3.8 nM | 10 nM | Cc1cc(-c2[nH]c3cc(C4CCN(C(=O)[C@@H]5CCCN5C)CC4)sc3c2C(C)C)cn2ncnc12 [Example 200] |
| 0.7 nM | 8.6 nM | Cc1cc(-c2[nH]c3cc(C4CCN(C(=O)C5CCN(C)C5)CC4)sc3c2C(C)C)cn2ncnc12 (centres unmarked) [Example 201] |
| 1.5 nM | 23.8 nM | Cc1cc(-c2[nH]c3cc(C4CCN(C(=O)C5CNC5)CC4)sc3c2C(C)C)cn2ncnc12 [Example 202] |
| 0.4 nM | 5.6 nM | Cc1cc(-c2[nH]c3cc(C4CCN(C(=O)C5CCCN(C)C5)CC4)sc3c2C(C)C)cn2ncnc12 (centres unmarked) [Example 203] |

| EC50 (TLR7) | EC50 (TLR8) | SMILES |
| --- | --- | --- |
| 0.5 nM | 9 nM | Cc1cc(-c2[nH]c3cc(C4CCN(C(=O)[C@H]5CCN(C)C5)CC4)sc3c2C(C)C)cn2ncnc12 [Example 205] |
| 0.3 nM | 15.4 nM | Cc1cc(-c2[nH]c3cc(C4CCC5(CC4)CN(C(=O)[C@@H]4CCCN4C)C5)sc3c2C(C)C)cn2ncnc12 [Example 206] |
| 0.7 nM | 19.9 nM | Cc1cc(-c2[nH]c3cc(C4CCC5(CC4)CN(C(=O)[C@H]4CCCN4C)C5)sc3c2C(C)C)cn2ncnc12 [Example 207] |
| 0.3 nM | 12.3 nM | Cc1cc(-c2[nH]c3cc(C4CCC5(CC4)CN(C(=O)CN4CCCC4)C5)sc3c2C(C)C)cn2ncnc12 [Example 208] |
| 15.4 nM | 1.7 nM | Cc1cc(-c2[nH]c3cc(-c4ccc5c(c4)CNC5)sc3c2C(C)C)cn2ncnc12 [Example 209, 2-(isoindolin-5-yl)-6-isopropyl-5-(8-methyl-[1,2,4]triazolo[1,5-a]pyridin-6-yl)-4H-thieno[3,2-b]pyrrole] |
| 0.5 nM | 2.3 nM | Cc1cc(-c2[nH]c3cc(-c4ccc(N5CCNCC5)nc4)sc3c2C(C)C)cn2ncnc12 [Example 210] |
| 1.9 nM | 0.5 nM | Cc1cc(-c2[nH]c3cc(-c4ccc5c(c4)CNCC5)sc3c2C(C)C)cn2ncnc12 [Example 211] |
| 0.2 nM | 1.6 nM | Cc1cc(-c2[nH]c3cc(-c4ccc5nc(C6N[C@@H]7CC[C@H]6C7)[nH]c5c4)sc3c2C(C)C)cn2ncnc12 (some centres unmarked) [Example 212] |
| 0.8 nM | 0.2 nM | Cc1cc(-c2[nH]c3cc(-c4cnc5c(c4)CNCC5)sc3c2C(C)C)cn2ncnc12 [Example 213] |
| 0.6 nM | 2.9 nM | Cc1cc(-c2[nH]c3cc(-c4ccc(N5CCNCC5)cc4)sc3c2C(C)C)cn2ncnc12 [Example 214] |
| 0.3 nM | 2.3 nM | Cc1cc(-c2[nH]c3cc(-c4cnn(C5CCNCC5)c4)sc3c2C(C)C)cn2ncnc12 [Example 215] |
| 0.4 nM | 3.1 nM | Cc1cc(N2CCNCC2)ncc1-c1cc2[nH]c(-c3cc(C)c4ncnn4c3)c(C(C)C)c2s1 [Example 216] |
| 0.2 nM | 6 nM | Cc1nc(N2CCNCC2)ccc1-c1cc2[nH]c(-c3cc(C)c4ncnn4c3)c(C(C)C)c2s1 [Example 217] |
| 3.3 nM | 1 nM | Cc1cc(-c2[nH]c3cc(-c4cnc5c(c4)CCNC5)sc3c2C(C)C)cn2ncnc12 [Example 218] |
| 34.9 nM | 4.6 nM | Cc1cc(-c2[nH]c3cc(-c4cnn5c4CNCC5)sc3c2C(C)C)cn2ncnc12 [Example 219] |
| 1.2 nM | 11.2 nM | Cc1nn(C2CCNCC2)cc1-c1cc2[nH]c(-c3cc(C)c4ncnn4c3)c(C(C)C)c2s1 [Example 220] |

| SMILES | EC50 (TLR7) | EC50 (TLR8) |
| --- | --- | --- |
| Cc1cc(-c2[nH]c3cc(C4CCN(C(=O)C5CN6CCC5CC6)CC4)sc3c2C(C)C)cn2ncnc12 (centres unmarked) [Example 204] | 0.5 nM | 9.9 nM |
